In patent US11560400B2, “Salts of diphosphate phosphoramidate of nucleosides as anticancer compounds” (NuCana plc, priority 2017, dated 2023):
“Also recorded” adds a separate entry of the source. Where a name gives a salt, the structure may show the parent alone. Read-outs that look alike come from different tables or passages of the source.

Assays:
[1] = tested on: KG1a cells; test: In vitro cytotoxicity, Annexin V/propidium iodide assay in KG1a cells; format: cell-based
Method: The acute myeloid leukaemia (AML) KG1a cell line was maintained in RPMI medium (Invitrogen, Paisley, UK) supplemented with 100 units/mL penicillin, 100 μg/mL streptomycin and 20% foetal calf serum. Cells were subsequently aliquoted (10^5 cells/100 μL) into 96-well plates and were incubated at 37° C. in a humidified normoxic (20% oxygen) or hypoxic (1% or 5% oxygen) atmosphere for 48 h in the presence of clofarabine, or clofarabine diphosphate phosphoramidates of the invention (1×10^−10M-1×10^−6M). In addition, control cultures were carried out to which no drug was added. Cells were subsequently harvested by centrifugation and were analysed by flow cytometry using the Annexin V assay.
Cultured cells were harvested by centrifugation and then resuspended in 195 μL of calcium-rich buffer. Subsequently, 5 μL of Annexin V (Caltag Medsystems, Botolph Claydon, UK) was added to the cell suspension and cells were incubated in the dark for 10 mins prior to washing. Cells were finally resuspended in 190 μL of calcium-rich buffer together with 10 μL of propidium iodide. Apoptosis was assessed by dual-colour immunofluorescent flow cytometry as described previously. Subsequently LD50 values (the dose required to kill 50% of the cells in a culture) were calculated for each nucleoside analogue and diphosphate phosphoramidate.
The data obtained in these experiments were evaluated using one-way ANOVA. All data was confirmed as Gaussian or a Gaussian approximation using the omnibus K2 test. LD50 values were calculated from the non-linear regression and line of best-fit analysis of the sigmoidal dose-response curves. All statistical analyses were performed using Graphpad Prism 6.0 software (Graphpad Software Inc., San Diego, Calif.).
The in vitro drug sensitivity of KG1a cells was assessed using the Annexin V/propidium iodide assay.

[2] = tested on: MOLT-4; test: CellTiterGlo cell viability assay, MOLT-4; format: cell-based; conditions: Homo sapiens, MOLT-4, 72 h
In short: (§1)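 72 h CTG viability; 9-pt, 3.16-fold titration, 198 μM top to 19.8 nM final; duplicates; 0.5% DMSO final; standard growth conditions. Read-out: absolute EC50 and % inhibition at highest concentration.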

[3] = tested on: HL-60; test: CellTiterGlo cell viability assay, HL-60; format: cell-based; conditions: Homo sapiens, HL-60, 72 h
In short: as §1

[4] = tested on: Lin−/CD34+/CD38−/CD123+ LSCs of KG1a cells; test: Leukaemic stem cell (LSC) targeting in KG1a cells; format: cell-based; conditions: in words
Method: KG1a cells were cultured for 48 h in the presence of a wide range of concentrations of each nucleoside analogue and their respective diphosphate phosphramidate. Cells were then harvested and labelled with a cocktail of anti-lineage antibodies (PE-cy7), anti-CD34 (FITC), anti-CD38 (PE) and anti-CD123 (PERCP cy5). The sub-population expressing a leukaemic stem cell (LSC) phenotype were subsequently identified and were expressed as a percentage of all viable cells left in the culture. The percentages of stem cells remaining were then plotted on a dose-response graph and the effects of the diphosphate phosphoramidate were compared with the parental nucleosides.

[5] = tested on: CCRF-CEM; test: CellTiterGlo cell viability assay, CCRF-CEM; format: cell-based; conditions: Homo sapiens, 72 h
In short: as §1

[6] = tested on: RL; test: CellTiterGlo cell viability assay, RL; format: cell-based; conditions: Homo sapiens, 72 h
In short: as §1

[7] = in vitro; conditions: human, hepatocytes, pH 7.3
[8] = tested on: MCF-7; test: CellTiterGlo cell viability assay, MCF-7; format: cell-based; conditions: MCF-7, 72 h; for EC50: read-out: Ab EC50
In short: as §1

[9] = tested on: RPMI-8226; test: CellTiterGlo cell viability assay, RPMI-8226; format: cell-based, Human; conditions: Homo sapiens, RPMI-8226, 72 h
In short: as §1

[10] = tested on: OVCAR 3; test: CellTiterGlo cell viability assay, OVCAR 3; format: cell-based; conditions: Homo sapiens; OVCAR 3, 72 h, Table 3 classes; read-out: Ab EC50
In short: as §1

[11] = tested on: HT29; test: CellTiterGlo cell viability assay, HT29; format: cell-based; conditions: HT29, 72 h; for EC50: read-out: Ab EC50
In short: as §1

[12] = tested on: K562; test: CellTiterGlo cell viability assay, K562; format: cell-based; conditions: Homo sapiens, K562, 72 h
In short: as §1

[13] = tested on: Human hepatocytes; conditions: pooled cryopreserved hepatocytes, 1 μM, 0 and 120 min, 37° C.
[14] = tested on: Mia-Pa-Ca-2; test: CellTiterGlo cell viability assay, Mia-Pa-Ca-2; format: cell-based; conditions: Mia-Pa-Ca-2, 72 h
Method: A subset of compounds of the invention were assayed for their cytotoxic activity in an array of different solid tumours and haematological malignancies using the following assay.
In vitro viability assay were performed to assess the effects of compounds on cell viability in selected cell lines over 72 h using the CellTiterGlo (CTG, Promega-G7573) assay. The tests were performed in duplicates with treatment of compounds at 9 points, 3.16 folds titration in 96 well plates over ˜72 h. The compound starting concentrations were 198 μM. Cell viability assay using CellTiterGlo in 96-well plate were performed. Compound treatment 72 h, standard growth conditions, duplicates. Compounds were dissolved to 40 mM with thawed […]. Compounds were serially diluted at 3.16 fold in thawed DMSO, and warmed to 37° C. before being dissolved in media (2 μL+200 μL). After compounds were dissolved in media, media containing compounds were warmed to 37° C. in incubator and then compounds in media were added to cell plates (50 μL+50 μL) in duplicates. The compounds' final concentrations were from 198 μM to 19.8 nM. All compound solubilities were checked and recorded again, then the plates were transferred to CO2 tissue culture incubator immediately and incubated for 3 days. DMSO final concentration is 0.5%. The parent nucleoside in each case was tested as a comparator, as was an exemplary ProTide. The drugs of the ProTide class that were tested were as follows:
The following cell lines were tested and are referred to in the Table 1 below:
In Tables 2, 3 and 4, ‘Ab EC50’ refers to the absolute EC50 and ‘Top inhibit’ refers to the percentage inhibition achieved at the highest concentration tested.

[15] = percentage inhibition at the highest concentration tested, read-out: Top Inh
[16] = Table 3 classes, read-out: Ab EC50
[17] = percentage inhibition at the highest concentration tested

## C[C@H](NP(=O)(Oc1ccccc1)OP(=O)(O)OC[C@H]1O[C@@H](n2cnc3c(N)nc(Cl)nc32)[C@H](F)C1O)C(=O)OCc1ccccc1 (stereo partly drawn) [Example 1, 2-Chloro-9-(2′-Deoxy-2′-fluoro-β-D-arabinofuranosyl)adenine-5′-O-[phenyl(benzoxy-L-alaninyl)] Diphosphate Triethylammonium Salt]
[1]; 5% oxygen, in words
  change of potency (mean LD50) under hypoxic versus normoxic conditions: no significant difference in mean LD50 values; also recorded: reduction in potency was not observed
[1]; 48 h, hypoxic (5% O2)
  Hypoxia Mean LD50: 16.3 nM
[1]; 48 h, normoxic (20% oxygen)
  Mean LD50 (Normoxia Mean LD50): 13.7 nM
[1]; in words
  potency in KG1a cells (dose-response curves): highest potency; also recorded: slightly more potent
[1]; normoxic
  mean LD50: 13.7 nM
[1]; ratio of mean LD50 values
  Ratio Normoxia/Hypoxia: 84.0
[2]; [15]
  inhibition at 198 µM: 82.7%
[2]; [16]
  EC50: < 0.2 µM
[3]; [16]
  EC50: < 0.2 µM
[3]; [15]
  inhibition at 198 µM: 97%
[4]
  selectivity against LSCs: trend towards increased selectivity
[5]; [16]
  EC50: < 0.2 µM
[5]; [15]
  inhibition at 198 µM: 98.7%
[6]; [16]
  EC50: 0.2 to 2 µM
[6]; [15]
  inhibition at 198 µM: 70%
[7]
  half-life: 0.333 to 1.67 h
[8]; Homo sapiens, MCF7, 72 h, Table 3 classes
  EC50: 0.2 to 2 µM
[8]; Homo sapiens, MCF7, 72 h, percentage inhibition at the highest concentration tested, read-out: Top Inhibit
  inhibition at 198 µM: 59%
[9]; [16]
  EC50: 5 to 10 µM
[9]; [15]
  inhibition at 198 µM: 91%
[10]
  EC50: > 10 µM
[11]; Homo sapiens, HT-29, 72 h, Table 3 classes
  EC50: 0.2 to 2 µM
[11]; Homo sapiens, HT-29, 72 h, percentage inhibition at the highest concentration tested, read-out: Top Inhibit
  inhibition at 198 µM: 66%
[12]; [15]
  inhibition at 198 µM: 24%
[12]; [16]
  EC50: > 10 µM

## Nc1ncnc2c1nc(Cl)n2[C@@H]1O[C@H](CO)[C@@H](O)[C@H]1O [8-Cl-Adenosine, reference compound]
[13]
  Human hepatocytes Mean half-life: >2 h
[14]; absolute EC50, read-out: Ab EC50
  EC50: 0.42 µM
[14]; [17]
  Top Inhibit: 85%
[8]; absolute EC50, numeric values
  EC50: 1.83 µM
[8]; [17]
  Top Inhibit: 85.7%
[11]; absolute EC50, numeric values
  EC50: 1.96 µM
[11]; [17]
  Top Inhibit: 73%
